Among the test systems are NCI-H226 lung; SNB-19 CNS; EKVX NSCLC; LOX IMVI melanoma; MCF7 breast; HCT-116 colon; CAKI-1 renal; SF-539 CNS; UACC-62 melanoma; SK-MEL-5 melanoma.
What all share (assay): NCI anticancer screen, dose series, 48 h

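Growth conditions: 96-well plates. Treatment: test compound, 48 hours, 5 concentrations. Analysis: linear interpolation between bracketing concentrations; unreached endpoints set to highest concentration. At the GI50, growth is halved. TGI: total growth inhibition.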 Where only a bound is given, the exact number is not on record here.

With `Nc1cc(N)c2nc(-c3ccccc3)c(NCc3ccc(F)cc3)nc2c1`, the GI50 was 22.4 µM with NCI-H226 lung; 6.68 µM in the assay with SNB-19 CNS; 1.89 µM with EKVX NSCLC; 1520 nM with LOX IMVI melanoma; 2990 nM in the assay on MCF7 breast; 12.8 µM in the assay with HCT-116 colon. For the same compound, the GI50 in the assay on CAKI-1 renal was 15.3 µM; in the assay on SF-539 CNS it was 1830 nM; with UACC-62 melanoma, 15.4 µM; in the assay with SK-MEL-5 melanoma, 1.88 µM. The TGI with NCI-H226 lung is 47.7 µM; in the assay with SNB-19 CNS, 20.1 µM; with EKVX NSCLC, 4.07 µM; in the assay with LOX IMVI melanoma it was 3.17 µM; with MCF7 breast, over 100 µM; with HCT-116 colon, over 100 µM. Moreover, the TGI with CAKI-1 renal stood at 37.1 µM; in the assay on SF-539 CNS it was 3.54 µM; with UACC-62 melanoma it was 29.5 µM; with SK-MEL-5 melanoma, 3.61 µM.

Turning to `CCCOc1nc(SCCC)nc2c1cnn2-c1ccccc1`, the GI50 in the assay on NCI-H226 lung was over 100 µM; with SNB-19 CNS it was over 100 µM; in the assay on EKVX NSCLC, 39.1 µM; in the assay on LOX IMVI melanoma, over 100000 nM; in the assay with MCF7 breast, over 100000 nM; with HCT-116 colon, 55.3 µM. In addition, the GI50 in the assay on CAKI-1 renal is 68.2 µM; in the assay with SF-539 CNS, over 100000 nM; in the assay with UACC-62 melanoma, over 100 µM; in the assay on SK-MEL-5 melanoma, over 100 µM. Moreover, the TGI with NCI-H226 lung, in the assay with SNB-19 CNS, in the assay with EKVX NSCLC, with LOX IMVI melanoma, with MCF7 breast and in the assay with HCT-116 colon was over 100 µM throughout. Also, the TGI in the assay on CAKI-1 renal, in the assay with SF-539 CNS, in the assay on UACC-62 melanoma and in the assay on SK-MEL-5 melanoma was over 100 µM in each case.

In the case of `Cn1ccnc1C(=O)/C=C/c1ccc(CC(=O)Nc2ccc(C(F)(F)F)cc2)cc1`, the GI50 is 4.19 µM in the assay on NCI-H226 lung; 2.46 µM with SNB-19 CNS; 3.07 µM in the assay with EKVX NSCLC; 2180 nM in the assay with LOX IMVI melanoma; 1020 nM in the assay with MCF7 breast; 2.4 µM with HCT-116 colon. The GI50 was 3.54 µM in the assay with CAKI-1 renal, 2210 nM in the assay on SF-539 CNS, 3.16 µM in the assay with UACC-62 melanoma and 3.83 µM in the assay on SK-MEL-5 melanoma. Besides, the TGI stood at 16 µM in the assay with NCI-H226 lung; 5.09 µM in the assay with SNB-19 CNS; 8.49 µM in the assay on EKVX NSCLC; 4.37 µM with LOX IMVI melanoma; 14.5 µM with MCF7 breast; 4.94 µM in the assay on HCT-116 colon. The TGI with CAKI-1 renal turned out to be 9.53 µM; in the assay with SF-539 CNS it was 4.45 µM; with UACC-62 melanoma it was 7.65 µM; in the assay with SK-MEL-5 melanoma, 11.2 µM.

On to `Nc1n[nH]c2cccc(C#Cc3cccc(C(=O)Nc4cc(CN5CCOCC5)cc(C(F)(F)F)c4)c3)c12`, for which the GI50 in the assay on NCI-H226 lung was 1.72 µM; in the assay with SNB-19 CNS it was 5.23 µM; in the assay on EKVX NSCLC it was 5.58 µM; in the assay on LOX IMVI melanoma it was 1870 nM; in the assay with MCF7 breast, 3280 nM; with HCT-116 colon, 2 µM. The GI50 is 5.11 µM with CAKI-1 renal, 2400 nM with SF-539 CNS, 1.99 µM with UACC-62 melanoma and 4.34 µM in the assay on SK-MEL-5 melanoma. Besides, the TGI is 9.68 µM with NCI-H226 lung; 20.3 µM in the assay on SNB-19 CNS; 19.9 µM in the assay on EKVX NSCLC; 5.63 µM in the assay with LOX IMVI melanoma; 15.6 µM in the assay on MCF7 breast; 11.1 µM with HCT-116 colon. Besides, the TGI came out at 19.4 µM in the assay on CAKI-1 renal, 12 µM in the assay on SF-539 CNS, 8.34 µM in the assay on UACC-62 melanoma and 16 µM in the assay with SK-MEL-5 melanoma.

Take `COc1cc2c3c(n(C)c(=O)c2cc1OC)-c1cc2c(cc1/C3=C\C(N)CN)OCO2` (stereo not given): the GI50 in the assay on NCI-H226 lung was 1.89 µM; with SNB-19 CNS, 1.36 µM; in the assay on EKVX NSCLC, 2.1 µM; in the assay with LOX IMVI melanoma, 1050 nM; with MCF7 breast, 510 nM; in the assay on HCT-116 colon, 1.16 µM. The GI50 in the assay on CAKI-1 renal was 2.27 µM; in the assay with SF-539 CNS, 1390 nM; in the assay with UACC-62 melanoma it was 0.707 µM; in the assay with SK-MEL-5 melanoma it was 2.8 µM. Also, the TGI was over 22.4 µM in the assay with NCI-H226 lung; over 49.3 µM in the assay on SNB-19 CNS; 9.95 µM in the assay with EKVX NSCLC; 3.12 µM with LOX IMVI melanoma; 7 µM with MCF7 breast; 2.44 µM in the assay with HCT-116 colon. For the same compound, the TGI stood at 10.4 µM with CAKI-1 renal, 4.49 µM in the assay on SF-539 CNS, 3.66 µM in the assay on UACC-62 melanoma and 8.53 µM in the assay on SK-MEL-5 melanoma.

Regarding `O=C(c1cccnc1)c1cc(-c2ccccn2)c(=O)n2ccccc12`, the GI50 was over 100 µM in the assay with NCI-H226 lung; over 100 µM in the assay on SNB-19 CNS; over 100 µM with EKVX NSCLC; over 100000 nM in the assay on LOX IMVI melanoma; over 100000 nM with MCF7 breast; over 100 µM in the assay with HCT-116 colon. For the same compound, the GI50 was over 100 µM with CAKI-1 renal, over 100000 nM with SF-539 CNS, over 100 µM in the assay with UACC-62 melanoma and over 100 µM in the assay with SK-MEL-5 melanoma. Moreover, the TGI in the assay with NCI-H226 lung, with SNB-19 CNS, in the assay on EKVX NSCLC, in the assay with LOX IMVI melanoma, in the assay with MCF7 breast and in the assay on HCT-116 colon was over 100 µM each time. Moreover, the TGI with CAKI-1 renal, with SF-539 CNS, with UACC-62 melanoma and with SK-MEL-5 melanoma was over 100 µM throughout.

Consider `CC(C)N1C(NNC(=O)c2cnccn2)=NS(=O)(=O)c2ccccc21`, for which the GI50 with NCI-H226 lung was over 100 µM; in the assay with SNB-19 CNS, over 100 µM; in the assay with EKVX NSCLC, over 100 µM; in the assay with LOX IMVI melanoma, over 100000 nM; in the assay with MCF7 breast it was over 100000 nM; in the assay with HCT-116 colon, over 100 µM. Moreover, the GI50 with CAKI-1 renal is over 100 µM; in the assay with SF-539 CNS, over 100000 nM; in the assay on UACC-62 melanoma, over 100 µM; in the assay on SK-MEL-5 melanoma it was over 100 µM. The TGI in the assay with NCI-H226 lung, with SNB-19 CNS, in the assay with EKVX NSCLC, in the assay on LOX IMVI melanoma, with MCF7 breast and with HCT-116 colon was over 100 µM each time. In addition, the TGI in the assay with CAKI-1 renal, in the assay on SF-539 CNS, in the assay with UACC-62 melanoma and in the assay with SK-MEL-5 melanoma was over 100 µM each time.

Values taken from PubChem BioAssay (NCI).
